The source of these data is patent publication US9845319B2, “Amide substituted thiazoles as modulators of RORyt” (Janssen Pharmaceutica NV, priority 2014, dated 2017).

The target of test [1] is T1, full-length human RORγt (Homo sapiens, UniProt P51449).
T1 construct: expressed in transfected cells; host or cells: HEK293T, transiently transfected with pCMV-BD-ROR
T1 sequence (P51449 1-497 isoform P51449-2): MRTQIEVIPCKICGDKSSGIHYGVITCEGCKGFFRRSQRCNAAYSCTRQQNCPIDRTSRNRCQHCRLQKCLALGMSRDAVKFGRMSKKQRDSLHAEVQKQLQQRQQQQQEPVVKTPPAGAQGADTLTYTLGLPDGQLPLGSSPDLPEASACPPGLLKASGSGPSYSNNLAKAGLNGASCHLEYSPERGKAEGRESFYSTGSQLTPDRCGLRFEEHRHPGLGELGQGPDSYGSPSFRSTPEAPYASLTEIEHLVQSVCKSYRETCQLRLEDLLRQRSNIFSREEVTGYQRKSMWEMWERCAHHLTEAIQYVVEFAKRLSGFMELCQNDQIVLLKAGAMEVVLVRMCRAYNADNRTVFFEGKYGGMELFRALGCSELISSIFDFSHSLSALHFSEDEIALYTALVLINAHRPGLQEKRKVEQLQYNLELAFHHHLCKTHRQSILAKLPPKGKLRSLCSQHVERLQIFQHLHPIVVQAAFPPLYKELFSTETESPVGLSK
Nature of the test: RORγt (full-length human) Reporter Assay, Conditions A. As to conditions: for IC50: HEK293T cells, GAL4-DBD-RORγt, luciferase, read-out: RORγt (FL) Reporter Assay A, IC50; for inhibition at 2 µM: read-out: RORγt (FL) Reporter Assay A, % inhibition (* at 2 μM), 2 μM compound concentration (footnote *). The format is cell-based. In a few lines: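 Reporter cells lysed after 16–20 h compound exposure; firefly and Renilla luciferase luminescence measured. Firefly signal normalised to DMSO and saturating reference compound, then to Renilla; IC50 from normalised data versus concentration, percent inhibition relative to DMSO.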

Test [2] relates to IL-17 production by CD4 T cells. Put plainly: Human Th17 Assay. Conditions: 72 h; IL-17 in supernatant, 3 days, human CD4+ T cells; read-out: Human Th17 Assay, IC50. The format is cell-based. On the procedure:
The human Th17 assay tests the effect of RORγt modulatory compounds on IL-17 production by CD4 T cells under conditions which favor Th17 differentiation. Total CD4^+ T cells were isolated from the peripheral blood mononuclear cells (PBMC) of healthy donors using a CD4^+ T cell isolation kit II, following the manufacturer's instructions (Miltenyi Biotec). […] 50 μL of compound at titrated concentrations in DMSO were added into each well at final DMSO concentration at 0.2%. Cells were incubated for 1 hour, then 50 μL of Th17 cell differentiation medium was added to each well. The final concentrations of antibodies and cytokines (R&D Systems) in differentiation medium were: 3×10^6/mL anti-CD3/CD28 beads (prepared using human T cell activation/expansion kit, Miltenyi Biotec), 10 μg/mL anti-IL4, 10 μg/mL anti-IFNγ, 10 ng/mL IL1β, 10 ng/mL IL23, 50 ng/mL IL6, 3 ng/mL TGFβ and 20 U/mL IL2. Cells were cultured at 37° C. and 5% CO2 for 3 days. Supernatants were collected and the accumulated IL-17 in culture was measured by using MULTI-SPOT® Cytokine Plate following manufacture's instruction (Meso Scale Discovery). The plate was read using Sector Imager 6000, and IL-17 concentration was extrapolated from the standard curve. The IC50s were determined by GraphPad.

In test [3] the target is T1, full-length human RORγt. Nature of the test: RORγt (full-length human) Reporter Assay, Conditions B or C. The class given is cell-based. Conditions: for IC50: HEK293T cells, GAL4-DBD-RORγt, luciferase, read-out: RORγt (FL) Reporter Assay B or C, IC50. On the procedure:
HEK293T cells were plated at 35,000 per well in 96-well plate in medium of DMEM with 10% FBS. […] After overnight (16 to 20 hours) incubation, media were removed and cells were lysed with 50 μL Glo Lysis Buffer (Promega) for 10-15 minutes followed by 10 minute incubation with 50 uL Dual Glo reagent (Promega) at room temperature. Firefly luciferase luminescence was measured using a BMG Pherastar plate reader. To each well, 50 uL Stop and Glo reagent was added and incubated for 10 minutes at room temperature. Renilla luminescence was measured using a BMG Pherastar plate reader. To calculate the effect of compounds on RORγt activity, firefly values were normalized against values of DMSO only and values of reference compound at saturating concentration, then further normalized against Renilla signals. IC50s were generated by plotting final Renilla normalized data against compound concentration and percent inhibition was calculated against DMSO control. […] HEK293T cells were plated at 8750 cells per well in 384-well plate in medium of DMEM with 10% FBS. […] After overnight (16 to 20 hours) incubation, media were removed and cells were lysed with 20 μL Glo Lysis Buffer (Promega) for 10-15 minutes followed by 10 minute incubation with 20 uL Dual Glo reagent (Promega) at room temperature. Firefly luciferase luminescence was measured using a BMG Pherastar plate reader. To each well, 20 uL Stop and Glo reagent was added and incubated for 10 minutes at room temperature. Renilla luminescence was measured using a BMG Pherastar plate reader. To calculate the effect of compounds on RORγt activity, firefly values were normalized against values of DMSO only and values of reference compound at saturating concentration, then further normalized against Renilla signals. IC50s were generated by plotting final Renilla normalized data against compound concentration and percent inhibition was calculated against DMSO control.
Background: In a reporter assay the amount or activity of a reporter protein is the signal.

Test [4] addresses T2, human RORγt ligand binding domain (RORγt LBD) (Homo sapiens, UniProt P51449).
T2 construct: His-tag (N); TurboTEV protease cleavage site (ENLYFQG) (N); made in house; host or cells: E. coli (pHIS1, a modified pET expression vector)
T2 sequence (P51449 with tags, fused parts or gaps): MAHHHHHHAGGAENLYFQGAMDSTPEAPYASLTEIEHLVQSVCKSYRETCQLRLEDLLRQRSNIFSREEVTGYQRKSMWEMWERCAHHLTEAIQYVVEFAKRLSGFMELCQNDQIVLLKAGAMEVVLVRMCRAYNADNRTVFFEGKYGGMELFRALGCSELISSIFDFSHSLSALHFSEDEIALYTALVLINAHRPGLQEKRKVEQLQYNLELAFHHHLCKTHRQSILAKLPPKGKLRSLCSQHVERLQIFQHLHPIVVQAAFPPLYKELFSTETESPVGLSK
Nature of the test: RORγt ThermoFluor assay. As to conditions: estimated from thermal shift concentration response. Summed up:
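Thermal shift of RORγt LBD (0.065 mg/mL) with 60 μM 1,8-ANS in 100 mM Hepes pH 7.0, NaCl, GSH, 0.002% Tween-20, heated at 1° C/min. ANS fluorescence tracked versus temperature; ΔTm relative to DMSO wells. Compounds serially diluted 1:2 from 10 mM DMSO stock.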

With `C[C@H]1CCCN1C(=O)c1nc(-c2nnc(C(C)(C)O)o2)sc1-c1ccc(C(O)(C(F)(F)F)C(F)(F)F)cc1C(F)(F)F` [Example 7/1, (S)-(5-(4-(1,1,1,3,3,3-hexafluoro-2-hydroxypropan-2-yl)-2-(trifluoromethyl)phenyl)-2-(5-(2-hydroxypropan-2-yl)-1,3,4-oxadiazol-2-yl)thiazol-4-yl)(2-methylpyrrolidin-1-yl)methanone], the figures for the concentration for half-maximal inhibition (IC50) in test [1], in test [2] and in test [3] were 38 nM, 64 nM and 6 nM, respectively. In addition, the inhibition (usually the relative decrease from the control value, in per cent) at 2 µM in test [1] turned out to be 102%; in test [3] (read-out: RORγt (FL) Reporter Assay B or C, % inhibition (* at 2 μM), 2 μM compound concentration (footnote *)), 108%. Besides, the Kd – broadly, the free concentration of one partner at which half of the binding sites on the other are occupied at equilibrium, for simple one-to-one binding – in test [4] was 1 nM.

In the case of `C[C@H]1CCCN1C(=O)c1nc(-c2nnc(C(C)(C)O)n2C)sc1-c1ccc(C(O)(C(F)(F)F)C(F)(F)F)cc1C(F)(F)F` [Example 22, (S)-(5-(4-(1,1,1,3,3,3-Hexafluoro-2-hydroxypropan-2-yl)-2-(trifluoromethyl)phenyl)-2-(5-(2-hydroxypropan-2-yl)-4-methyl-4H-1,2,4-triazol-3-yl)thiazol-4-yl)(2-methylpyrrolidin-1-yl)methanone], in test [1], the IC50 (commonly the concentration that gives 50% inhibition) worked out at 110 nM and the inhibition at 2 µM came to 99%. For the same compound, in test [3], the IC50 worked out at 83 nM. For the same compound, the inhibition at 6 µM in test [3] (read-out: RORγt (FL) Reporter Assay B or C, % inhibition @ 6 μM, 6 μM compound) was 87%. Besides, in test [4], the Kd was 5 nM.
